Reference: US8415295B2, “Heterocyclic boronic acid compounds” (Phenomix Corporation, priority 2003, dated 2013)

Assay: Dependence of aminoboronate (closed) and boronic acid (open) forms on pH, 1H-NMR in D2O phosphate
Assay type: physicochemical
Conditions: 0.4 M Na2HPO4 in D2O, three days in the dark, FIG. 1
Method: A 0.4 M stock solution of Na2HPO4 was prepared by dissolving 909 mg of salt in 16 mL of D2O. pH was adjusted to the desired value by dropwise addition of either […] in D2O or 5% DCl in D2O. The pH values were measured with a Fisher Scientific Accumet AB15 pH meter. Aliquots of the stock solution (4 mL) were prepared and 8 mg of compound 4 in the closed form (aminoboronate) were added to each one. The scintillation vials were capped, sealed with parafilm and allowed to stand in the dark for three days. After this time pH was measured again. The open/closed (i.e., linear/cyclic) ratio of compound 4 isomers at each pH was determined by recording the corresponding ^1H-NMR spectra in a Varian AS 500 MHz instrument and measuring the ratio of the integrals of the peaks at 2.90-2.95 ppm and 2.40-2.50 ppm characteristic of the open and closed forms, respectively.

O=C(CNC1CCCC1)N1CCC[C@H]1B(O)O [Compound 4, (2R)-1-(2-Cyclopentylamino-acetyl)-boroPro-OH]
open/closed (linear/cyclic) ratio of isomers at each pH: the closed form predominates at higher pHs such as physiological pH, whereas the open form predominates at lower pHs
